What was measured:
[1] = test system: AJ3 crude enzyme solution (esterase); assay: Hydrolysis of racemic ketoprofen esters in 2-phase biotransformations; type: biochemical, Ophiostoma novo-ulmi; settings: ester 20 g/l in cyclohexane, 24 hours, 25° C.
Method: Various esters of racemic ketoprofen were dissolved in cyclohexane to a concentration of 20 g/l. The esters used were methyl, ethyl, n-propyl, n-butyl, n-pentyl, n-hexyl. In the case of methyl ester, a suspension was prepared due to low solubility of ester in cyclohexane.
To 5 ml aliquots of crude enzyme solution in glass vials was added 2 ml of each of the six racemic ketoprofen ester solutions above. […] Reactions were conducted with shaking for 24 hours at 25° C.

[2] = test system: cloned AJ3 esterase in recombinant E. coli CS62 lysate; assay: Hydrolysis of racemic butyrate ester of 2-methoxycyclohexanol by lysate of CS62; type: biochemical, Ophiostoma novo-ulmi; settings: 41 hours, 25° C., pH 8.0
Method: Cells (grown as per Example 7) were resuspended at 5% w/v in 100 mM TRIS, pH 8, and lysed by sonication for 15 minutes (10 seconds on, 10 seconds off cycle) at an amplitude of 20 μm in a Soniprep 150. The lysate was centrifuged to remove cell debris and the supernatant used in biotransformation.
10 g of the racemic butyrate ester of 2-methoxycyclo-hexanol was mixed with 100 ml of 100 mm TRIS, pH 8, by magnetic stirring. 20 ml of the above lysate of CS62 was added. The temperature of the biotransformation was controlled at 25° C. and the pH at 8.0 by the addition of 1M NaOH. Samples were removed and monitored for 2-methoxycyclohexanol formation. NaCl was added to saturation to 1 ml sample which was then extracted into 1 ×5 volumes of toluene. The toluene layer was removed and dried by the addition of MgSO4. The sample was then analysed by GC. A 15 m DB-5 column with 0.25 μm film was used with helium as the carrier, at 55.2 kPa, the oven temperature was 60° C. for 1 minute, raised at 10° C./min to 150° C., and this temperature was then held for a further minute.
The ee of the 2-methoxycyclohexanol formed was determined following derivatisation with trifluoroacetic anhydride (TFAA). 20 μl of TFAA was added to 1 ml of the toluene-extracted sample which was then allowed to stand at ambient temperature for 30 minutes. […]

Cells of AJ3 = assay: Whole-broth biotransformation of racemic ethyl ketoprofen by growing cells of AJ3; type: cell-based, Ophiostoma novo-ulmi; settings: 20 g/l ester in broth, 120 hours
Method: This was shaken for 30 hours at 23° C. and then 2.5 ml transferred into a second 250 ml baffled flask containing 30 ml of the same medium as in Example 1. Following growth for 40 hours, at 23° C. with shaking, racemic ethyl ketoprofen was added to the broth to a concentration of 20 g/l.

[3] = test system: esterase of AJ3 (Ophiostoma novo-ulmi), crude enzyme solution; assay: Hydrolysis of racemic ethyl naproxen in cyclohexane by crude enzyme lysate of AJ3; type: biochemical; settings: 72 hours, 23° C.
Method: This culture was grown with shaking at 30° C. for 48 hours. 10 ml was then transferred into 90 ml fresh medium in a 1 liter shake flask and grown for a further 8 hours at 30° C. with shaking. This flask was used to inoculate a 2.8 1 laboratory fermenter with 1.5 1 medium plus 5 g/l glucose and 0.5 ml/l of a silicone/PPG-based antifoam (XF0371, Ivanhoe Chemicals, Ill., U.S.A.). This fermenter was operated for 48 hours with agitation and aeration, controlled to maintain a DOT >50% air saturation and temperature and pH at 30° C. and 6.0 respectively.
At the completion of the fermentation the cells were harvested by centrifugation and the pellet resuspended at 10% w/v (based on wet cell weight) in lysis buffer, i.e. 0.1M sodium carbonate in 5% Triton X-100 aqueous solution. Lysis was carried out overnight at 8° C. with shaking after which the enzyme activity-containing lysate was separated from the cell debris by centrifugation. The lysate was then diluted 50% in lysis buffer, prior to its being used to carry out resolution.
Racemic ethyl naproxen (ethyl 6-methoxy-α-methyl-2-naphthaleneacetate) was dissolved in cyclohexane to a concentration of 19 mg/ml. 2 ml of this solution was then mixed with 5 ml of prepared crude enzyme solution in a glass vial and reacted with shaking for 72 hours at 23° C.

[4] = test system: cloned AJ3 esterase in recombinant E. coli CS62 lysate; assay: Hydrolysis of racemic ethyl naproxen by cell-free lysate of recombinant strain CS62; type: biochemical, Ophiostoma novo-ulmi; settings: 1 hour, 25° C.
Method: Cells of CS62 grown and stored as described above were used to provide enzyme for use in the hydrolysis of ethyl naproxen. Cells were resuspended at 10% w/v in 0.1M sodium carbonate, pH 10, and lysed by sonication for 10 minutes (10 seconds on, 10 seconds off cycles) at 4° C. The enzyme lysate was then centrifuged to obtain a cell-free supernatant solution.
Racemic ethyl naproxen was dissolved in cyclohexane to a concentration of 100 g/l. 200 μl of this solution was added to 1 ml enzyme solution and shaken for 1 hour at 25° C. The phases were then separated and the aqueous phase analysed (by reverse phase HPLC) for naproxen accumulation.

[5] = Screen of 12 commercially-available lipase/esterase preparations on the butyrate ester; type: biochemical; settings: racemic butyrate ester of 2-methoxycyclohexanol as substrate
Description: The stereo-specific activity of this biocatalyst is considered unusual. […] This is potentially advantageous in that it enables access to the (S)-enantiomer as the alcohol without having to exceed 50% conversion.

Molecule: COC(=O)C(C)c1cccc(C(=O)c2ccccc2)c1 (racemic) [METHYL]
- ACID PRODUCED [1]: 1.7 mg/mL
- CONVERSION [1]: 42.3%
- EE (%)(S)-enantiomer [1]: 90%

Molecule: CCCC(=O)OC1CCCCC1OC (racemic) [butyrate ester of 2-methoxycyclo-hexanol]
- conversion of the substrate [2]: 44%
- ee of the 2-methoxycyclohexanol in favour of the (S)-enantiomer [2]: 96%

Molecule: CCOC(=O)C(C)c1cccc(C(=O)c2ccccc2)c1 (racemic) [ethyl ketoprofen]
- enantiomeric excess of ketoprofen acid formed, in favour of the (S)-enantiomer (Cells of AJ3): 96%
- hydrolysis of the added ester (Cells of AJ3; HPLC): 18.2%

Molecule: CCOC(=O)C(C)c1ccc2cc(OC)ccc2c1 (racemic) [ethyl naproxen, ethyl 6-methoxy-α-methyl-2-naphthaleneacetate]
- enantiomeric purity of naproxen, (S) enantiomer (equivalent to the ee) [3]: 96.5%
- ee (enantiomeric excess) of naproxen in favour of the (S) enantiomer ([3]; HPLC): 93%
- CONVERSION ([3]; cyclohexane 2-phase): about 40%
- accumulation of naproxen in aqueous phase ([3]; ester 19 mg/ml in cyclohexane, 2 ml + 5 ml crude enzyme): 2.76 mg/mL
- CONVERSION [4]: about 26%
- ee in favour of the S-enantiomer [4]: > 95%
- naproxen accumulated in aqueous phase ([4]; ester 100 g/l in cyclohexane, 200 μl + 1 ml enzyme): 5.3 g/L

Molecule: CCCCOC(=O)C(C)c1cccc(C(=O)c2ccccc2)c1 (racemic) [n-BUTYL]
- ACID PRODUCED [1]: 0.3 mg/mL
- CONVERSION [1]: 8.0%

Molecule: CCCCCCOC(=O)C(C)c1cccc(C(=O)c2ccccc2)c1 (racemic) [n-HEXYL]
- ACID PRODUCED [1]: 0.09 mg/mL
- CONVERSION [1]: 2.3%

Molecule: CCCCCOC(=O)C(C)c1cccc(C(=O)c2ccccc2)c1 (racemic) [n-PENTYL]
- ACID PRODUCED [1]: 0.18 mg/mL
- CONVERSION [1]: 4.4%

Molecule: CCCOC(=O)C(C)c1cccc(C(=O)c2ccccc2)c1 (racemic) [n-PROPYL]
- ACID PRODUCED [1]: 1.0 mg/mL
- CONVERSION [1]: 25.6%
- EE (%)(S)-enantiomer [1]: 86%

B1: porcine pancreatic lipase: commercially-available lipase/esterase preparation (protein, UniProt P00591 1-450, looked up)
Pancreatic triacylglycerol …: SEVCFPRLGCFSDDAPWAGIVQRPLKILPWSPKDVDTRFLLYTNQNQNNYQELVADPSTITNSNFRMDRKTRFIIHGFIDKGEEDWLSNICKNLFKVESVNCICVDWKGGSRTGYTQASQNIRIVGAEVAYFVEVLKSSLGYSPSNVHVIGHSLGSHAAGEAGRRTNGTIERITGLDPAEPCFQGTPELVRLDPSDAKFVDVIHTDAAPIIPNLGFGMSQTVGHLDFFPNGGKQMPGCQKNILSQIVDIDGIWEGTRDFVACNHLRSYKYYADSILNPDGFAGFPCDSYNVFTANKCFPCPSEGCPQMGHYADRFPGKTNGVSQVFYLNTGDASNFARWRYKVSVTLSGKKVTGHILVSLFGNEGNSRQYEIYKGTLQPDNTHSDEFDSDVEVGDLQKVKFIWYNNNVINPTLPRVGASKITVERNDGKVYDFCSQETVREEVLLTLNPC
- stereo-specificity of hydrolysis [5]: specificity for the (R)-enantiomer
